Data as given in paper PMC12977544, “Phenotypic high-throughput screening identifies modulators of gut microbial choline metabolism” (mBio, 2026).

Legend:
E. coli MS 200-1 = experiment: Growth-based phenotypic high-throughput screen (OD600 Z-scores, choline vs glycerol NCE medium); type: cell-based, Escherichia coli MS 200-1; settings: 20 µg/mL; for Z-score from HTS, Zcho at T1 / Z-score from HTS, Zcho at T2: choline NCE medium; for Z-score from HTS, Zcho at T1 / Z-score from HTS, Zgly at T1: 7 h; for Z-score from HTS, Zcho at T2 / Z-score from HTS, Zgly at T2: 20 h; for Z-score from HTS, Zgly at T1 / Z-score from HTS, Zgly at T2: glycerol NCE medium
Procedure: The primary screen was performed in duplicate using the ChemDiv7 commercial library from the Institute of Chemistry and Cell Biology–Longwood (ICCB-L) Screening Facility, consisting of 49,128 compounds (Fig. 1D). Each compound was tested at a concentration of 20 µg/mL.
NCE media was adapted based on the “no carbon E” media as previously described ([14]), and contains 29 mM potassium phosphate monobasic, 29 mM potassium phosphate dibasic, 17 mM ammonium sodium phosphate dibasic, 40 mM sodium fumarate dibasic, 0.1% (wt/vol) casamino acids, and either 20 mM choline chloride or 3 g/L glycerol. This mixture was supplemented with 1 mM magnesium sulfate, 1% ATCC vitamin supplement, and 1% ATCC trace mineral supplement.
Compounds from the Institute of Chemistry and Cell Biology-Longwood Screening Facility (ICCB-L) commercial ChemDiv7 library were transferred to 384-well plates at 5 mg/mL in DMSO.
E. coli was grown anaerobically in LB media containing 1 mM choline chloride overnight at 37°C and then resuspended (two log-fold dilution) in either NCE media supplemented with 20 mM choline or 3 g/L glycerol for screening. The E. coli cultures were then added to the compound plates and incubated at 37°C anaerobically. The final concentration of compounds in culture was 20 µg/mL. OD600 was measured at 7 h and 20 h in duplicate compound plates. For control, 60 µg/mL kanamycin was used. Z-scores of each compound were calculated by measuring the number of standard deviations of each well’s OD600 with respect to the plate’s mean OD600. Compounds with a Z-score of less than –2 on choline but more than or equal to 0 on glycerol, in at least one replicate plate, were selected for further validation. Z’ was calculated using the control columns, as an internal quality control.

[1] = test system: conventional C57BL/6 mice; experiment: Serum TMAO in conventional mice after inhibitor treatment; type: in vivo, Mus musculus C57BL/6
Procedure: In a biosafety cabinet, a 300 mg/mL stock of sterile inhibitor in filter-sterilized DMSO was prepared. After this preparation, a working solution of 3 mg/mL of the inhibitor stock in sterile 1% hydroxyethyl cellulose/1% polysorbate 80 was prepared within 4 days of gavaging the mice and stored at room temperature. A low dose of the inhibitor was also prepared, using a working solution of 0.3 mg/mL of the inhibitor stock in sterile 1% hydroxyethyl cellulose/1% polysorbate 80. The vehicle was prepared in the same way with DMSO without inhibitor. […] All mice were administered by gavage with 3 mg/kg or 30 mg/kg of the inhibitor once a day (between 6 and 8 a.m.) for three consecutive days. A fecal sample was collected before the first gavage. At sacrifice, tissues collected were blood, cecal contents, a fecal pellet, proximal colon, distal small intestine, liver, and kidney. Mice were anesthetized with isoflurane and underwent cardiac puncture for a terminal blood draw, followed by cervical dislocation. Tissues were snap-frozen in liquid nitrogen. Blood was spun down at 8,000 × g for 8 min at room temperature; the resulting serum layer was removed and snap-frozen. […] […] was used for peak quantification, and internal standards were utilized as a comparison to calculate plasma concentrations. Statistical significance was calculated using an unpaired t-test.

[2] = first value of cell (replicate plate)
[3] = second value of cell (replicate plate)

Compound | Z-score from HTS, Zcho at T1 (E. coli MS 200-1; [2]) | Z-score from HTS, Zcho at T1 (E. coli MS 200-1; [3]) | Z-score from HTS, Zcho at T2 (E. coli MS 200-1; [2]) | Z-score from HTS, Zcho at T2 (E. coli MS 200-1; [3]) | Z-score from HTS, Zgly at T1 (E. coli MS 200-1; [2]) | Z-score from HTS, Zgly at T1 (E. coli MS 200-1; [3]) | Z-score from HTS, Zgly at T2 (E. coli MS 200-1; [2]) | Z-score from HTS, Zgly at T2 (E. coli MS 200-1; [3]) | Serum TMAO level relative to vehicle treatment ([1]; 30 mg/kg oral gavage daily for 3 days, 1% choline diet, P = 0.027) | Decrease of serum TMAO levels ([1]; 30 mg/kg, n = 6, P = 0.027)
Cc1ccc(-c2cc(C(=O)NCCCN3CCc4ccccc4C3)c(C)[nH]2)cc1C [Compound 5] | −4.27 | –4.23 | 0.16 | –0.06 | −1.42 | 0.61 | 0.83 | 1.41 | – | –
Cc1ccc(-c2cc(C(=O)NCCCCCN3CCCCCC3)c(C)[nH]2)cc1C [Compound 45] | – | – | – | – | – | – | – | – | about 60 % of vehicle treatment | ~ 40%
